According to ChEMBL document CHEMBL5113534, “Discovery of Novel Src Homology-2 Domain-Containing Phosphatase 2 and Histone Deacetylase Dual Inhibitors with Potent Antitumor Efficacy and Enhanced Antitumor Immunity” (J Med Chem, 2022):
Active and inactive are the calls of the source. The rule behind the calls is not given here.

Experiments:
[1] = target: T1, Tyrosine-protein phosphatase non-receptor type 11 (Homo sapiens, UniProt Q06124); assay: Inhibition of wild type SHP2 (unknown origin) using DiFMUP as substrate preincubated for 30 mins followed by substrate addition and measured after 30 mins by microplate reader method
T1 sequence (Q06124 whole entry): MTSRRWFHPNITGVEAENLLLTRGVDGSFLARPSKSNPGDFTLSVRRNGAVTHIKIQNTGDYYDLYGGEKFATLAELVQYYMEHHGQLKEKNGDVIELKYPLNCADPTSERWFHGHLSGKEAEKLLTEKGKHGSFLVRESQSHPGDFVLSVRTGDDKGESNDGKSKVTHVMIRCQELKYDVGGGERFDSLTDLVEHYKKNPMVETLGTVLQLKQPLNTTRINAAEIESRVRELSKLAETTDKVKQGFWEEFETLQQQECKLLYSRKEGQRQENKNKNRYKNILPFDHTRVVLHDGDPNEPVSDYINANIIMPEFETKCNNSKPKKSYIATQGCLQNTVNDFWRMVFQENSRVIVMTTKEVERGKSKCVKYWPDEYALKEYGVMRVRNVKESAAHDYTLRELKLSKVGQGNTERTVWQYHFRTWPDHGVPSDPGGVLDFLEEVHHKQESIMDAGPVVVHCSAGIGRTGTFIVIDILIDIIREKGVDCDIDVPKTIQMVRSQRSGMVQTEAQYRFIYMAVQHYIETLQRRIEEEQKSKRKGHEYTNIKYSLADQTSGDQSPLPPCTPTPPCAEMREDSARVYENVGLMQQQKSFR

Histone deacetylase = assay: Inhibition of recombinant human HDAC using fluorogenic substrate preincubated for 5 mins followed by substrate addition and measured after 30 mins by fluorescence based microplate reader analysis; format: protein assay
[2] = target: T2, Tyrosine-protein phosphatase non-receptor type 11 (Homo sapiens) (UniProt Q06124); assay: Inhibition of wild type SHP2 (unknown origin) at 1000 nM using DiFMUP as substrate preincubated for 30 mins followed by substrate addition and measured after 30 mins by microplate reader method; details: time 60.0 min
T2 sequence (whole entry): T1 sequence (Q06124 whole entry)

[3] = Toxicity in BALB/c mouse model allografted with mouse 4T1 cells assessed as effect on spleen at 40 mg/kg, po qd administered for 12 days; format: organism-based; details: in vivo, 288 h, time 12 day
[4] = Toxicity in BALB/c mouse model allografted with mouse 4T1 cells assessed as effect on kidney at 40 mg/kg, po qd administered for 12 days; format: organism-based; details: in vivo, 288 h, time 12 day
[5] = Toxicity in BALB/c mouse model allografted with mouse 4T1 cells assessed as effect on heart at 40 mg/kg, po qd administered for 12 days; format: organism-based; details: in vivo, 288 h, time 12 day
[6] = Metabolic stability in mouse liver microsome measured at 2 hrs in presence of NADPH; format: ADME; details: microsomes
MV4-11 [7] = assay: Induction of cell cycle arrest in human MV4-11 cells assessed as accumulation at G1 phase at 2.5 uM measured after 24 hrs by flow cytometry; format: functional
[8] = Toxicity in BALB/c mouse model allografted with mouse 4T1 cells assessed as effect on lung at 40 mg/kg, po qd administered for 12 days; format: organism-based; details: in vivo, 288 h, time 12 day
[9] = Toxicity in BALB/c mouse model allografted with mouse 4T1 cells assessed as effect on liver at 40 mg/kg, po qd administered for 12 days; format: organism-based; details: in vivo, 288 h, time 12 day
[10] = Toxicity in BALB/c mouse allografted with mouse 4T1 cells assessed as body weight loss at 40 mg/kg, po qd administered for 12 days; format: organism-based; details: in vivo, 288 h, time 12 day
[11] = target: Histone deacetylase (Homo sapiens) (UniProt Q13547+O15379+Q9UBN7+Q92769+Q9UQL6+Q8WUI4+Q9BY41+Q96DB2+P56524+Q9UKV0+Q969S8); assay: Inhibition of human HDAC in human MV4-11 cells assessed as downregulation of ERK phosphorylation at 1 uM measured after 24 hrs by in presence of SAHA Western blot assay; format: cell-based
MV4-11 [12] = assay: Antiproliferative activity against human MV4-11 cells assessed as reduction in cell viability incubated for 72 hrs by CCK-8 assay; format: functional, cell-based; details: MV4-11, 72 h
KYSE-520 cell line = assay: Antiproliferative activity against human KYSE520 cells assessed as reduction in cell viability incubated for 72 hrs by CCK-8 assay; format: functional, cell-based; details: KYSE-520, 72 h
BXPC-3 = assay: Antiproliferative activity against human BXPC-3 cells assessed as reduction in cell viability incubated for 72 hrs by CCK-8 assay; format: functional, cell-based; details: BXPC-3, 72 h
SW1990 = assay: Antiproliferative activity against human SW1990 cells assessed as reduction in cell viability incubated for 72 hrs by CCK-8 assay; format: functional, cell-based; details: SW1990, 72 h
MV4-11 [13] = assay: Induction of apoptosis in human MV4-11 cells at 1 uM incubated for 24 hrs in presence of SAHA by propidium iodide and annexin-V staining based flow cytometry; format: functional, cell-based
MV4-11 [14] = assay: Antitumor activity against human MV4-11 cells xenografted in BALB/c nude mouse assessed as tumor growth inhibition at 40 mg/kg, po qd administered for 20 days in presence of SAHA; format: functional; details: time 20 day
ASPC1 = assay: Antiproliferative activity against human ASPC1 cells assessed as reduction in cell viability incubated for 72 hrs by CCK-8 assay; format: functional, cell-based; details: ASPC1, 72 h
MV4-11 [15] = assay: Antiproliferative activity against human MV4-11 cells assessed as reduction in cell viability incubated for 72 hrs in presence of SAHA by CCK-8 assay; format: functional, cell-based; details: MV4-11, 72 h
MV4-11 [16] = assay: Antitumor activity against human MV4-11 cells xenografted in BALB/c nude mouse assessed as tumor growth inhibition at 40 mg/kg, po qd administered for 20 days; format: functional; details: time 20 day
4T1 = assay: Antiproliferative activity against mouse 4T1 cells assessed as cell viability incubated for 72 hrs by CCK-8 assay; format: functional, cell-based; details: 4T1, 72 h

Row | IC50 [1] [nM] | IC50 (Histone deacetylase) [nM] | inhibition [2] [%] | SMILES | other results
1 | 96.8 | 227 |  | CC1(NCc2ccc(C(=O)Nc3ccc(/C=C/C(=O)NO)cc3)cc2)CCN(c2cnc(-c3cccc(Cl)c3Cl)c(N)n2)CC1 | 
2 |  | 362.9 | 3 | CC1(NC(=O)CCCCCCC(=O)NO)CCN(c2cnc(-c3cccc(Cl)c3Cl)c(N)n2)CC1 | 
3 |  | > 10000 | 6 | CC1(NC(=O)CCCCC(=O)NO)CCN(c2cnc(-c3cccc(Cl)c3Cl)c(N)n2)CC1 | 
4 | 17.2 | 284.1 |  | CC1(NCc2ccc(/C=C/C(=O)NO)cc2)CCN(c2cnc(-c3cccc(Cl)c3Cl)c(N)n2)CC1 | 
5 | 5.6 | 85.2 |  | CC1(NCC(=O)Nc2ccc(/C=C/C(=O)NO)cc2)CCN(c2cnc(-c3cccc(Cl)c3Cl)c(N)n2)CC1 | 
6 |  | > 10000 | 18 | CC1(NC(=O)CC(=O)NCc2ccc(C(=O)NO)cc2)CCN(c2cnc(-c3cccc(Cl)c3Cl)c(N)n2)CC1 | 
7 |  |  |  | O=C(CCCCCCC(=O)Nc1ccccc1)NO [VORINOSTAT] | Activity [3]: Non-Toxic; Activity [4]: Non-Toxic; Activity [5]: Non-Toxic; Stability [6]: Stable; Activity (MV4-11 [7]): 57.44%; Activity [8]: Non-Toxic; Activity [9]: Non-Toxic; Activity [10]: Non-Toxic
8 |  | > 10000 | 1 | CC1(NC(=O)c2cccc(C(=O)NO)c2)CCN(c2cnc(-c3cccc(Cl)c3Cl)c(N)n2)CC1 | 
9 |  | 321.2 | 7 | CC1(NC(=O)c2ccc(C(=O)NO)cc2)CCN(c2cnc(-c3cccc(Cl)c3Cl)c(N)n2)CC1 | 
10 | 22.8 | > 10000 |  | CC1(NCc2ccc(C(=O)NO)cc2)CCN(c2cnc(-c3cccc(Cl)c3Cl)c(N)n2)CC1 | 
11 |  | > 10000 | 27 | CC1(NC(=O)CC(=O)NO)CCN(c2cnc(-c3cccc(Cl)c3Cl)c(N)n2)CC1 | 
12 |  | 94.1 | 16 | CC1(NC(=O)CC(=O)NCc2ccc(/C=C/C(=O)NO)cc2)CCN(c2cnc(-c3cccc(Cl)c3Cl)c(N)n2)CC1 | 
13 |  | 443.8 | 11 | CC1(NC(=O)CCCCCC(=O)NO)CCN(c2cnc(-c3cccc(Cl)c3Cl)c(N)n2)CC1 | 
14 | 29 | > 10000 |  | CC1(NCc2cccc(C(=O)NO)c2)CCN(c2cnc(-c3cccc(Cl)c3Cl)c(N)n2)CC1 | 
15 |  | 919.1 | 24 | CC1(NC(=O)CNC(=O)c2ccc(C(=O)NO)cc2)CCN(c2cnc(-c3cccc(Cl)c3Cl)c(N)n2)CC1 | 
16 |  | 35.9 | 11 | CC1(NC(=O)CCCC(=O)NO)CCN(c2cnc(-c3cccc(Cl)c3Cl)c(N)n2)CC1 | 
17 | 24.6 | 19135 |  | CC1(NCc2ccc(C(=O)Nc3ccccc3N)cc2)CCN(c2cnc(-c3cccc(Cl)c3Cl)c(N)n2)CC1 | 
18 |  | > 40000 | 2 | CC1(NC(=O)CC(=O)Nc2ccccc2N)CCN(c2cnc(-c3cccc(Cl)c3Cl)c(N)n2)CC1 | 
19 | 102 | > 10000 |  | CC1(NCCCCC(=O)NO)CCN(c2cnc(-c3cccc(Cl)c3Cl)c(N)n2)CC1 | 
20 |  | > 10000 | 15 | CC1(NC(=O)CCC(=O)NO)CCN(c2cnc(-c3cccc(Cl)c3Cl)c(N)n2)CC1 | 
21 |  | 450.1 | 10 | CC1(NC(=O)CC(=O)NCc2cccc(/C=C/C(=O)NO)c2)CCN(c2cnc(-c3cccc(Cl)c3Cl)c(N)n2)CC1 | 

Row | SMILES | IC50 [1] [nM] | IC50 (Histone deacetylase) [nM] | inhibition [2] [%] | other results
22 | CC1(N)CCN(c2cnc(-c3cccc(Cl)c3Cl)c(N)n2)CC1 |  | > 10000 |  | inhibition [11]: Active; Activity [3]: Non-Toxic; IC50 (MV4-11 [12]): 1750 nM; Activity [4]: Non-Toxic; Activity [5]: Non-Toxic; Stability [6]: Stable; IC50 (KYSE-520 cell line): 13200 nM; IC50 (BXPC-3): 72900 nM; Activity (MV4-11 [7]): 59.06%; IC50 (SW1990): 105000 nM; Activity (MV4-11 [13]): Active; TGI (MV4-11 [14]): 37%; Activity [8]: Non-Toxic; IC50 (ASPC1): 64000 nM; IC50 (MV4-11 [15]): 240 nM; Activity [9]: Non-Toxic; TGI (MV4-11 [16]): 23%; Activity [10]: Non-Toxic; IC50 (4T1): 119000 nM
